Key:
[1] = test system: Sinapis alba, Chrysanthemum segetum, Avena sativa, Stellaria media, Alopecurus myosuroides and Lolium multiflorum; test: Herbicidal action, pre-emergence (greenhouse pot test); type: in vivo; settings: applied pre-emergence, 0.3 kg and less of active substance per hectare; rated visually after 3 to 4 weeks vs untreated controls
From the text: Seeds or pieces or rhizome of mono- and dicotyledon weed plants were laid out in sandy loam soil in plastic pots and covered with soil. The compounds according to the invention, formulated in the form of wettable powders or emulsion concentrates, were then applied to the surface of the covering soil as an aqueous suspension or emulsion in various dosages, with an amount of water applied, when converted, of 600 to 800 l/ha.
After the treatment, the pots were placed in a greenhouse and kept under good growth conditions for the weeds. The plant damage or emergence damage was rated visually after emergence of the test plants after a test period of 3 to 4 weeks in comparison with untreated controls.

[2] = test system: Sinapis alba, Stellaria media, Alopecurus myosuroides and Lolium multiflorum, Chrysanthemum segetum and Avena sativa; test: Herbicidal action, post-emergence (greenhouse pot test); type: in vivo; settings: applied postemergence in three-leaf stage, 0.3 kg or less of active substance per hectare; rated visually after about 3 to 4 weeks vs untreated controls
Description: Seeds or pieces of rhizome of mono- and dicotyledon weeds were laid out in sandy loam soil in plastic pots, covered with soil and grown in a greenhouse under good growth conditions. Three weeks after sowing, the test plants were treated in the three-leaf stage.
The compounds according to the invention, formulated as wettable powders or as emulsion concentrates, were sprayed onto the green parts of plants in various dosages with an amount of water applied of, when converted, 600 to 800 l/ha, and after the test plants had stood in a greenhouse for about 3 to 4 weeks under optimum growth conditions, the action of the preparations was rated visually in comparison with untreated controls. The compositions according to the invention also show a good herbicidal activity against a broad spectrum of economically important graminaceous weeds and broad-leafed weeds when applied post-emergence.

Row | Structure (SMILES) | melting point | herbicidal action, pre-emergence [1] | herbicidal action, post-emergence [2]
1 | CCC(=O)Nc1ccc(C(=O)N(C)C)c(S(=O)(=O)NC(=O)Nc2nc(OC)cc(OC)n2)c1 | 135 to 140 °C (dec.) | – | –
2 | COc1cc(OC)nc(NC(=O)[N-]S(=O)(=O)c2cc(NC=O)ccc2C(=O)N(C)C)n1.[Na+] [1 from Table 2] | – | very good herbicidal action | –
3 | COc1cc(OC)nc(NC(=O)[N-]S(=O)(=O)c2cc(NC(C)=O)ccc2C(=O)N(C)C)n1.[Na+] [7 from Table 2] | – | very good herbicidal action | –
4 | COc1cc(OC)nc(NC(=O)NS(=O)(=O)c2cc(NC=O)ccc2C(=O)N(C)C)n1 [8 from Table 1] | – | very good herbicidal action | very good herbicidal action
5 | COc1cc(OC)nc(NC(=O)NS(=O)(=O)c2cc(NC(C)=O)ccc2C(=O)N(C)C)n1 [15 from Table 1] | – | very good herbicidal action | very good herbicidal action
6 | COc1cc(OC)nc(NC(=O)[N-]S(=O)(=O)c2cc(NC(=O)C(C)C)ccc2C(=O)N(C)C)n1.[Na+] [16 from Table 2] | – | very good herbicidal action | –
7 | COc1cc(OC)nc(NC(=O)[N-]S(=O)(=O)c2cc(NC(=O)C(F)(F)F)ccc2C(=O)N(C)C)n1.[Na+] [17 from Table 2] | – | very good herbicidal action | –
8 | COC(=O)Nc1ccc(C(=O)N(C)C)c(S(=O)(=O)[N-]C(=O)Nc2nc(C)nc(OC)n2)c1.[Na+] [20 from Table 2] | – | very good herbicidal action | –
9 | COC(=O)Nc1ccc(C(=O)N(C)C)c(S(=O)(=O)[N-]C(=O)Nc2nc(OC)cc(OC)n2)c1.[Na+] [21 from Table 2] | – | very good herbicidal action | –
10 | CCC(=O)Nc1ccc(C(=O)N(C)C)c(S(=O)(=O)NC(=O)Nc2nc(OC)cc(OC)n2)c1 [22 from Table 1] | – | very good herbicidal action | very good herbicidal action
11 | COC(=O)Nc1ccc(C(=O)N(C)C)c(S(=O)(=O)[N-]C(=O)Nc2nc(Cl)cc(OC)n2)c1.[Na+] [22 from Table 2] | – | very good herbicidal action | –
12 | COc1cc(OC)nc(NC(=O)NS(=O)(=O)c2cc(NC(=O)C(C)C)ccc2C(=O)N(C)C)n1 [25 from Table 1] | – | very good herbicidal action | very good herbicidal action
13 | CCOC(=O)Nc1ccc(C(=O)N(C)C)c(S(=O)(=O)[N-]C(=O)Nc2nc(OC)cc(OC)n2)c1.[Na+] [26 from Table 2] | – | very good herbicidal action | –
14 | COc1cc(OC)nc(NC(=O)NS(=O)(=O)c2cc(NC(=O)C(C)(C)C)ccc2C(=O)N(C)C)n1 [30 from Table 1] | – | very good herbicidal action | very good herbicidal action
15 | COc1cc(C)nc(NC(=O)NS(=O)(=O)c2cc(NC(=O)C(F)(F)F)ccc2C(=O)N(C)C)n1 [40 from Table 1] | – | very good herbicidal action | very good herbicidal action
16 | COc1nc(NC(=O)NS(=O)(=O)c2cc(NC(=O)C(F)(F)F)ccc2C(=O)N(C)C)nc(OC)n1 [44 from Table 1] | – | very good herbicidal action | very good herbicidal action
17 | COC(=O)Nc1ccc(C(=O)N(C)C)c(S(=O)(=O)NC(=O)Nc2nc(OC)cc(OC)n2)c1 [53 from Table 1] | – | very good herbicidal action | very good herbicidal action
18 | COC(=O)Nc1ccc(C(=O)N(C)C)c(S(=O)(=O)NC(=O)Nc2nc(Cl)cc(OC)n2)c1 [55 from Table 1] | – | very good herbicidal action | very good herbicidal action

Row | Structure (SMILES) | melting point | herbicidal action, pre-emergence [1] | herbicidal action, post-emergence [2]
19 | COC(=O)Nc1ccc(C(=O)N(C)C)c(S(=O)(=O)NC(=O)Nc2nc(C)nc(OC)n2)c1 [58 from Table 1] | – | very good herbicidal action | very good herbicidal action
20 | CCOC(=O)Nc1ccc(C(=O)N(C)C)c(S(=O)(=O)NC(=O)Nc2nc(OC)cc(OC)n2)c1 [59 from Table 1] | – | very good herbicidal action | very good herbicidal action
21 | COc1cc(OC)nc(NC(=O)NS(=O)(=O)c2cc(NC(=O)OCCCl)ccc2C(=O)N(C)C)n1 [65 from Table 1] | – | very good herbicidal action | very good herbicidal action
22 | CCNC(=O)Nc1ccc(C(=O)N(C)C)c(S(=O)(=O)NC(=O)Nc2nc(OC)cc(OC)n2)c1 [72 from Table 1] | – | very good herbicidal action | very good herbicidal action
23 | COc1cc(OC)nc(NC(=O)NS(=O)(=O)c2cc(NS(C)(=O)=O)ccc2C(=O)N(C)C)n1 [77 from Table 1] | – | very good herbicidal action | very good herbicidal action
24 | CNS(=O)(=O)Nc1ccc(C(=O)N(C)C)c(S(=O)(=O)NC(=O)Nc2nc(OC)cc(OC)n2)c1 [87 from Table 1] | – | very good herbicidal action | very good herbicidal action
25 | COc1cc(OC)nc(NC(=O)NS(=O)(=O)c2cc(NC(=O)C3CC3)ccc2C(=O)N(C)C)n1 [115 from Table 1] | – | very good herbicidal action | very good herbicidal action
26 | CCN(C)C(=O)c1ccc(NC=O)cc1S(=O)(=O)NC(=O)Nc1nc(OC)cc(OC)n1 [116 from Table 1] | – | very good herbicidal action | very good herbicidal action
27 | COc1cc(OC)nc(NC(=O)NS(=O)(=O)c2cc(NC=O)ccc2C(=O)N(C)C)n1.[Na] [Example 1 from Table 2, N-[(4,6-dimethoxypyrimidin-2-yl)-aminocarbonyl]-2-dimethylaminocarbonyl-5-formylamino-benzenesulfonamide sodium salt] | – | – | very good herbicidal action
28 | COc1cc(OC)nc(NC(=O)[N-]S(=O)(=O)c2cc(NC(C)=O)ccc2C(=O)N(C)C)n1.[Na+] [Example 7 from Table 2] | – | – | very good herbicidal action
29 | CCC(=O)Nc1ccc(C(=O)N(C)C)c(S(=O)(=O)NC(=O)Nc2nc(OC)cc(OC)n2)c1.[Na] [Example 12 from Table 2, N-[(4,6-dimethoxypyrimidin-2-yl)-aminocarbonyl]-2-dimethylaminocarbonyl-5-propionylamino-benzenesulfonamide sodium salt] | 212 °C (dec.) | – | very good herbicidal action
30 | COc1cc(OC)nc(NC(=O)[N-]S(=O)(=O)c2cc(NC(=O)C(C)C)ccc2C(=O)N(C)C)n1.[Na+] [Example 16 from Table 2] | – | – | very good herbicidal action
31 | COc1cc(OC)nc(NC(=O)[N-]S(=O)(=O)c2cc(NC(=O)C(F)(F)F)ccc2C(=O)N(C)C)n1.[Na+] [Example 17 from Table 2] | – | – | very good herbicidal action
32 | COC(=O)Nc1ccc(C(=O)N(C)C)c(S(=O)(=O)[N-]C(=O)Nc2nc(C)nc(OC)n2)c1.[Na+] [Example 20 from Table 2] | – | – | very good herbicidal action
33 | COC(=O)Nc1ccc(C(=O)N(C)C)c(S(=O)(=O)NC(=O)Nc2nc(OC)cc(OC)n2)c1.[Na] [Example 21 from Table 2, N-[(4,6-dimethoxypyrimidin-2-yl)-aminocarbonyl]-2-dimethylaminocarbonyl-5-methoxycarbonylamino-benzenesulfonamide sodium salt] | 187 to 191 °C (dec.) | – | very good herbicidal action
34 | COC(=O)Nc1ccc(C(=O)N(C)C)c(S(=O)(=O)[N-]C(=O)Nc2nc(Cl)cc(OC)n2)c1.[Na+] [Example 22 from Table 2] | – | – | very good herbicidal action
35 | CCOC(=O)Nc1ccc(C(=O)N(C)C)c(S(=O)(=O)[N-]C(=O)Nc2nc(OC)cc(OC)n2)c1.[Na+] [Example 26 from Table 2] | – | – | very good herbicidal action

Reference: patent publication US6498253B1, “Acylated aminophenylsulfonylureas, processes for their preparation and their use as herbicides and plant growth regulators” (priority 1994, dated 2002)
